Values quoted from earlier work in patent US20120289492A1, “METHODS OF TREATING MITOCHONDRIAL DISORDERS USING METALLOPORPHYRINS” (priority 2009, published 2012).

Experiments:
CD-1 Sod2−/− mice = details: cited from earlier work
[1] = safety studies in mice, monkeys and rats; phase 1 in amyotrophic lateral sclerosis patients; cited from earlier work

In the case of `[Cl-].[Mn+3].[O-]c1ccccc1C=NCCN=Cc1ccccc1[O-]` [EUK8], the neurodegeneration (CD-1 Sod2−/− mice) is listed as “ameliorated” and the spongiform encephalopathy (CD-1 Sod2−/− mice) is listed as “ameliorated”.
In the case of `COc1cccc(C=NCCN=Cc2cccc(OC)c2[O-])c1[O-].[Cl-].[Mn+3]` [EUK134], the neurodegeneration (CD-1 Sod2−/− mice) is listed as “ameliorated” and the spongiform encephalopathy (CD-1 Sod2−/− mice) is listed as “ameliorated”.
In the case of `CCN1C=CN(CC)C1=C1C2=NC(=C(c3n(CC)cc[n+]3CC)C3=NC(=C(c4n(CC)cc[n+]4CC)c4ccc([n-]4)C(c4n(CC)cc[n+]4CC)=C4C=CC1=N4)C=C3)C=C2.[Cl-].[Cl-].[Cl-].[Cl-].[Cl-].[Mn+3]` [AEOL10150], the serious adverse events [1] is listed as “No serious adverse events have been found”.
In the case of `O=C(O)c1ccc(/C2=C3\C=CC(=N3)/C(c3ccc(C(=O)O)cc3)=c3/cc/c4[n]3[Mn]([Cl])[n]3c2ccc3/C(c2ccc(C(=O)O)cc2)=C2/C=CC(=N2)\C=4c2ccc(C(=O)O)cc2)cc1` [MnTBAP, manganese tetrakis 5, 10, 15, 20 . . . porphyrin], the cardiomyopathy (CD-1 Sod2−/− mice) is given as “ameliorated” and the neurodegeneration (CD-1 Sod2−/− mice) is given as “but not neurodegeneration”.
